Source: ChEMBL document CHEMBL1201862, “PubChem BioAssay data set” (2004)
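Tested at 5 concentrations; 48 h exposure; 96-well plates; endpoints linearly interpolated, else capped at highest concentration. Here, GI50 denotes the concentration required for 50% inhibition of growth.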 Active and inactive are the calls of the source. Cut-off read from the data, not from the text of the source: active = GI50 up to about 1.1 µM and inactive = higher.

Key:
Assay in all cases: NCI-60 cell line screen, 48 h
KM-20L2 = test system: KM-20L2
HOP-18 = test system: HOP-18
M19-MEL = test system: M19-MEL
RXF 631 = test system: RXF 631
DLD-1 = test system: DLD-1
SNB-78 = test system: SNB-78
DMS-114 = test system: DMS-114
DMS-273 = test system: DMS-273
XF498 = test system: XF498

NCCn1cnc2nc(NC(=O)c3ccccc3)[nH]c(=O)c21
GI50 (KM-20L2): > 100 µM (inactive)
GI50 (HOP-18): > 100 µM (inactive)
GI50 (M19-MEL): > 100 µM (inactive)
GI50 (RXF 631): > 100 µM (inactive)
GI50 (DLD-1): > 100 µM (inactive)
GI50 (SNB-78): > 100 µM (inactive)
GI50 (DMS-114): > 100 µM (inactive)

COC(=O)NC(=O)c1cn(C2CCCCC2)c(=O)[nH]c1=O
GI50 (KM-20L2): > 100 µM (inactive)
GI50 (DMS-273): > 100 µM (inactive)
GI50 (HOP-18): > 100 µM (inactive)
GI50 (M19-MEL): > 100 µM (inactive)
GI50 (DLD-1): > 100 µM (inactive)
GI50 (SNB-78): > 100 µM (inactive)
GI50 (DMS-114): > 100 µM (inactive)

COc1cc(Cc2nccc3cc(OC)c(OC)cc23)c(C(C)=O)cc1OC
GI50 (KM-20L2): 56.9 µM (inactive)
GI50 (DMS-273): 14.9 µM (inactive)
GI50 (HOP-18): > 300 µM (inactive)
GI50 (XF498): 12.2 µM (inactive)
GI50 (M19-MEL): 64.9 µM (inactive)
GI50 (RXF 631): > 750 µM (inactive)
GI50 (DLD-1): 136 µM (inactive)
GI50 (SNB-78): 74.6 µM (inactive)
GI50 (DMS-114): 5.94 µM (inactive)

COc1ccc2c(c1OCC(=O)O)C(=O)C(CCC(=O)O)CC2 (centres undefined)
GI50 (KM-20L2): > 100 µM (inactive)
GI50 (DMS-273): > 100 µM (inactive)
GI50 (HOP-18): > 100 µM (inactive)
GI50 (XF498): 71.1 µM (inactive)
GI50 (M19-MEL): > 100 µM (inactive)
GI50 (RXF 631): > 100 µM (inactive)
GI50 (DLD-1): > 100 µM (inactive)
GI50 (SNB-78): > 100 µM (inactive)
GI50 (DMS-114): > 100 µM (inactive)

N/N=C(/Cc1nc2ccc(C(=O)c3ccccc3)cc2nc1O)C(=O)Nc1ccc([N+](=O)[O-])cc1[N+](=O)[O-]
GI50 (KM-20L2): > 100 µM (inactive)
GI50 (DMS-273): > 10 µM (inactive)
GI50 (HOP-18): 35.5 µM (inactive)
GI50 (XF498): 8.07 µM (inactive)
GI50 (M19-MEL): > 10 µM (inactive)
GI50 (SNB-78): > 10 µM (inactive)
GI50 (DMS-114): > 10 µM (inactive)

CCC1(O)C(=O)OCc2c1cc1n(c2=O)Cc2cc3cc4c(cc3nc2-1)OCO4 (centres undefined)
GI50 (KM-20L2): 0.0137 µM (active)
GI50 (DMS-273): < 0.01 µM (active)
GI50 (HOP-18): < 0.01 µM (active)
GI50 (XF498): < 0.0185 µM (active)
GI50 (M19-MEL): < 0.01 µM (active)
GI50 (RXF 631): 0.0176 µM (active)
GI50 (DLD-1): 0.0759 µM (active)
GI50 (SNB-78): 3.37 µM (inactive)
GI50 (DMS-114): < 0.01 µM (active)

O=c1c2c(nc3n1CCC3)sc1c(O)c(Br)ccc12
GI50 (KM-20L2): 13.5 µM (inactive)
GI50 (DMS-273): 14.9 µM (inactive)
GI50 (HOP-18): > 100 µM (inactive)
GI50 (XF498): 21.5 µM (inactive)
GI50 (M19-MEL): 16.3 µM (inactive)
GI50 (DLD-1): 27.7 µM (inactive)
GI50 (SNB-78): 33.3 µM (inactive)
GI50 (DMS-114): 16.3 µM (inactive)

O=C1C(=O)N(C2C3CC4CC(C3)CC2C4)C(=O)C(=O)C1c1nc2ccccc2o1 (centres undefined)
GI50 (KM-20L2): 82 µM (inactive)
GI50 (DMS-273): > 100 µM (inactive)
GI50 (HOP-18): 54.2 µM (inactive)
GI50 (XF498): 74 µM (inactive)
GI50 (M19-MEL): 55 µM (inactive)
GI50 (RXF 631): > 100 µM (inactive)
GI50 (DLD-1): 37.3 µM (inactive)
GI50 (SNB-78): > 100 µM (inactive)
GI50 (DMS-114): 19.4 µM (inactive)

CC(=O)O[C@]1(C)CCC2C(C)C(=O)OC2C2C(C)[C@@H](O)CC21 (some centres undefined)
GI50 (KM-20L2): 29.3 µM (inactive)
GI50 (DMS-273): 22.4 µM (inactive)
GI50 (HOP-18): 40.6 µM (inactive)
GI50 (M19-MEL): 23.2 µM (inactive)
GI50 (DLD-1): 41.4 µM (inactive)
GI50 (SNB-78): 74 µM (inactive)

COc1cccc(NC(=O)CSc2nnc(-c3ccc(/N=C\c4ccc(Cl)cc4)cc3)o2)c1
GI50 (KM-20L2): 16.9 µM (inactive)
GI50 (DMS-273): > 10 µM (inactive)
GI50 (HOP-18): 40 µM (inactive)
GI50 (XF498): 19.2 µM (inactive)
GI50 (M19-MEL): 22.8 µM (inactive)
GI50 (SNB-78): 40.3 µM (inactive)
GI50 (DMS-114): 20.5 µM (inactive)

O=C(OCCOCBr)c1ccccc1
GI50 (KM-20L2): > 100 µM (inactive)
GI50 (DMS-273): > 100 µM (inactive)
GI50 (HOP-18): > 100 µM (inactive)
GI50 (RXF 631): > 100 µM (inactive)
GI50 (DLD-1): > 100 µM (inactive)
GI50 (SNB-78): > 100 µM (inactive)
GI50 (DMS-114): > 100 µM (inactive)

CCCCCCCCC(=O)NCCN(CCN)C(=O)CCCCCCCC
GI50 (KM-20L2): 5.04 µM (inactive)
GI50 (DMS-273): 2.87 µM (inactive)
GI50 (HOP-18): 16.7 µM (inactive)
GI50 (XF498): 2.42 µM (inactive)
GI50 (M19-MEL): 5.74 µM (inactive)
GI50 (RXF 631): 4.08 µM (inactive)
GI50 (DLD-1): 5.37 µM (inactive)
GI50 (SNB-78): 10.4 µM (inactive)
GI50 (DMS-114): 4.79 µM (inactive)

O=C(O)CCC1(Br)CCCCC(Br)C1=O (centres undefined)
GI50 (KM-20L2): > 100 µM (inactive)
GI50 (DMS-273): > 100 µM (inactive)
GI50 (HOP-18): 32.8 µM (inactive)
GI50 (XF498): > 100 µM (inactive)
GI50 (M19-MEL): > 100 µM (inactive)
GI50 (SNB-78): > 100 µM (inactive)
GI50 (DMS-114): > 100 µM (inactive)

COc1ccccc1/C=C(\C#N)C(=O)c1ccccc1
GI50 (KM-20L2): > 100 µM (inactive)
GI50 (DMS-273): > 100 µM (inactive)
GI50 (XF498): > 100 µM (inactive)
GI50 (M19-MEL): > 100 µM (inactive)
GI50 (SNB-78): > 100 µM (inactive)
GI50 (DMS-114): > 100 µM (inactive)

Clc1ccc2c(NCCCCCCNc3ccnc4cc(Cl)ccc34)ccnc2c1
GI50 (KM-20L2): 1.99 µM (inactive)
GI50 (DMS-273): 2.98 µM (inactive)
GI50 (XF498): 1.57 µM (inactive)
GI50 (M19-MEL): 3.13 µM (inactive)
GI50 (RXF 631): 2.44 µM (inactive)
GI50 (DLD-1): 3.03 µM (inactive)
GI50 (SNB-78): 1.86 µM (inactive)
GI50 (DMS-114): 1.8 µM (inactive)

C/C(CC(=O)Nc1ccc(Cl)cc1)=N\NC(N)=S
GI50 (KM-20L2): 13.9 µM (inactive)
GI50 (DMS-273): 8.09 µM (inactive)
GI50 (XF498): > 100 µM (inactive)
GI50 (M19-MEL): 66.5 µM (inactive)
GI50 (RXF 631): > 100 µM (inactive)
GI50 (DLD-1): 18.3 µM (inactive)
GI50 (SNB-78): > 100 µM (inactive)
GI50 (DMS-114): 39.1 µM (inactive)

O=[N+]([O-])c1cc(I)cc(/C=N/NS(=O)(=O)c2ccc(Cl)cc2)c1O
GI50 (KM-20L2): 36 µM (inactive)
GI50 (DMS-273): 19.8 µM (inactive)
GI50 (HOP-18): 19.1 µM (inactive)
GI50 (M19-MEL): 25.2 µM (inactive)
GI50 (RXF 631): 22.7 µM (inactive)
GI50 (DLD-1): 26 µM (inactive)
GI50 (SNB-78): 27.5 µM (inactive)

COc1cc(/C=C2\CCC/C(=C\c3ccc(O)c(OC)c3)C2=O)ccc1O [CYCLOVALONE]
GI50 (KM-20L2): 15.2 µM (inactive)
GI50 (DMS-273): 1.51 µM (inactive)
GI50 (HOP-18): 2.74 µM (inactive)
GI50 (XF498): 5.7 µM (inactive)
GI50 (M19-MEL): 1.86 µM (inactive)
GI50 (DLD-1): 1.75 µM (inactive)
GI50 (SNB-78): 2.75 µM (inactive)
GI50 (DMS-114): 1.77 µM (inactive)

CCC(O)C1Cc2c(C)cc3c(c2O1)C(=O)c1ccccc1C3=O (centres undefined)
GI50 (KM-20L2): 35.2 µM (inactive)
GI50 (DMS-273): 28.7 µM (inactive)
GI50 (HOP-18): 17.2 µM (inactive)
GI50 (XF498): 14.3 µM (inactive)
GI50 (M19-MEL): 41.7 µM (inactive)
GI50 (DLD-1): 42 µM (inactive)
GI50 (SNB-78): 33.2 µM (inactive)
GI50 (DMS-114): 25.4 µM (inactive)

Cc1nn(C)c(=S)n(C)c1=O
GI50 (KM-20L2): 24.9 µM (inactive)
GI50 (DMS-273): 0.427 µM (active)
GI50 (HOP-18): 0.43 µM (active)
GI50 (XF498): 1.15 µM (inactive)
GI50 (M19-MEL): 0.624 µM (active)
GI50 (DLD-1): 3.16 µM (inactive)
GI50 (SNB-78): 3.18 µM (inactive)
GI50 (DMS-114): 0.269 µM (active)

CC(=O)Oc1ccc2c(=O)c(C(C)=O)coc2c1
GI50 (KM-20L2): > 100 µM (inactive)
GI50 (DMS-273): > 100 µM (inactive)
GI50 (XF498): 83.9 µM (inactive)
GI50 (M19-MEL): > 100 µM (inactive)
GI50 (SNB-78): 80 µM (inactive)

c1nc2cscc2c2cscc12
GI50 (DMS-273): > 100 µM (inactive)
GI50 (XF498): > 100 µM (inactive)
GI50 (M19-MEL): > 100 µM (inactive)
GI50 (SNB-78): > 100 µM (inactive)
GI50 (DMS-114): > 100 µM (inactive)
